The test system of series [1] is FSaIIC murine fibrosarcoma. Nature of the series: Tumor growth delay with melphalan (time to 500 mm^3). The series is classed as in vivo, C3H mice. The following applies: melphalan 10 mg/kg i.p. plus 50 μl of 5 or 20 μg of ozone per ml of oxygen by tail vein injection, then 4 days; FIG. 8. The procedure:
8 week old male C3H mice were inoculated with 2×10^6 FSaIIC murine fibrosarcoma cells in the hind limb. When tumors reached a volume of 50 mm^3, animal were divided into 4 groups of 10 mice. Group I was untreated, Group II was administered a dose of 10 mg/kg melphalan by intraperitoneal injection. Group III was administered melphalan together with 50 μl of untreated syngeneic blood injected intramuscularly in the non-tumor bearing hind limb. Group IV was administered melphalan with 50 μl of syngeneic blood treated with 20 μl ozone/ml of oxygen. Following the initial melphalan injection, animals in Groups III and IV continued receiving intramuscular injections of 50 μl of untreated syngeneic blood, or 50 μl of syngeneic blood treated with 20 μl ozone/ml of oxygen, respectively for 4 days, one injection per day. All animals were observed until tumors attained a volume of 500 mm^3. The delay in tumor time to achieve 500 mm^3 volume is illustrated in FIG. 4.
8 week old male C3H mice were inoculated with 2×10^6 FSaIIC murine fibrosarcoma cells in the hind limb. When tumors reached a volume of 50 mm^3, animal were divided into 4 groups of 10 mice. Group I was untreated, Group II was administered a dose of 10 mg/kg melphalan by intraperitoneal injection. Group HI was administered melphalan together with an intramuscular injection of 1×10^6 syngeneic untreated mononuclear cells. […]

The nature of series [2]: Tolerability of intravenous ozone in tumor bearing mice. The class given is in vivo, C3H mice. The note with it: 50 μl of 5 or 20 μg of ozone per ml of oxygen, tail vein, 5 daily injections, with melphalan. The procedure:
In order to stress cells in vivo, ozone at 5 μg per ml of oxygen, or 20 μg per ml of oxygen was injected directly into the tail vein of tumor bearing mice. Such injections are performed by filling a 1 cc syringe with the indicated concentration of ozone in medical grade oxygen. The gas is slowly injected into the tail vein so not to induce embolism. Due to the high solubility of oxygen and ozone in blood, embolism formation is not usually a problem.
8 week old male C3H mice were inoculated with 2×10^6 FSaIIC murine fibrosarcoma cells in the hind limb. When tumors reached a volume of 50 mm^3, animal were divided into 4 groups of 10 mice. Group I was untreated, Group II was administered a dose of 10 mg/kg melphalan by intraperitoneal injection. Group III was administered melphalan together with 50 μl of 5 μg of ozone per ml of oxygen by tail vein injection. Group IV was administered melphalan with 50 μl of 20 μg of ozone per ml of oxygen by tail vein injection. Following the initial melphalan injection, animals in Groups III and IV continued receiving intravenous injections of 50 μl of 5 μg of ozone per ml of oxygen, or 50 μl of 20 μg of ozone per ml of oxygen, respectively for 4 days, one injection per day. All animals were observed until tumors attained a volume of 500 mm^3. The delay in tumor time to achieve […] volume is illustrated in FIG. 8.

SMILES strings stand for the structures.

Consider `O=[O+][O-]` [intravenous ozone, ozone], for which the “delay in time to achieve 500 mm^3 tumor volume with melphalan” value in series [1] was “increased the tumor inhibitory effects of melphalan”. The tolerability entry in series [2] is “well tolerated”.

These data come from patent publication US20050169944A1, “Increasing tumor oxygen content by administration of stressed cells” (priority 2002, published 2005).
